Patent US10624947B2, “Bactericidal peptides and uses thereof” (INDIANA UNIVERSITY RESEARCH AND TECHNOLOGY CORPORATION, priority 2016, dated 2020)
In brackets after ≈: the same amount, converted by molar mass. Entries after “also recorded” stand apart in the source; their conditions may differ. Where two headings read alike, the source gives them in different places. Square brackets hold non-standard residues; d marks the D form. Ends that are not written are not given here. Peptide text beside a SMILES is read from it. AEEA = NCCOCCOCC(=O)O

Assays:
[1] = test system: Klebsiella pneumoniae
Protocol: (§4) Antimicrobial activity was determined using the broth microdilution method based on the general recommendation of the Clinical and Laboratory Standards Institute. Bacteria were grown in Mueller-Hinton broth at 37° C. until OD625 reached 0.06, and then bacteria were further diluted into 1:20 for later use. […] 10 microliter (μL) of diluted bacteria was mixed with 90 μL of peptides at varying concentrations followed by incubation at 37° C. for 16-18 hours. The MIC is the lowest peptide concentration at which visible growth was inhibited. The MIC value was determined at least twice in independent experiments and typically in 3-4 assays.

[2] = test system: V. vulnificus; assay: Iron-dextran septicemia model; assay type: in vivo, mice (strain CD-1); settings: 10 or 20 μM intraperitoneally 1 h after V. vulnificus
Protocol: (§1) FIGS. 23A, B show the efficacy and toxicity of modified peptides in mice. […] The survival of mice injected intraperitoneally with iron dextran at 48 h after intraperitoneal injection of 10 or 20 μM of the modified peptides. […] Vibrio vulnificus (V. v.) strain CMCP6 was injected at 1×10^6 CFU. […] All mice receive iron dextran by intraperitoneal injection. Where indicated, 1 h later 10^6 bacterial CFU in 100 μL was injected into the peritoneum (opposite side). 1 h later, 100 μL of the peptide at the indicated concentration was administered on the same side as the bacterial injection.
(§2) Since B22a was effective in preventing infection of V. vulnificus in a surgical incision model, we tested it for efficacy for systemic infection in a mouse septicemia model (1). Groups of mice (strain CD-1) were first injected with […], followed 1 h later with an intraperitoneal injection of 1×10e6 colony forming units of V. vulnificus strain […]. The B22a was then injected intraperitoneally 1 h later and morbidity was monitored hourly for two days.
PB22N and other modified peptides were tested in a septicemic mouse model. V. vulnificus is a highly-pathogenic bacterium, causing septicemia and high mortality. In mice injected intraperitoneally with V. vulnificus, the majority of the mice had to be euthanized within 24 h due to severe symptoms associated with septicemia (FIG. 23B). […]

[3] = Toxicity of peptides injected intraperitoneally; assay type: in vivo, mice; settings: intraperitoneal, 10 or 20 μM
Protocol: as §1, §2
PB22N and other modified peptides were tested in a septicemic mouse model. V. vulnificus is a highly-pathogenic bacterium, causing septicemia and high mortality. In mice injected intraperitoneally with V. vulnificus, the majority of the mice had to be euthanized within 24 h due to severe symptoms associated with septicemia (FIG. 23B). […] PB22N was effective in preventing mice from succumbing to systemic infection by the highly virulent V. vulnificus.

[4] = test system: Escherichia coli
Protocol: as §4

[5] = test system: twenty representative Gram-negative bacteria of the Enterobacteriacea; assay: MIC panel; assay type: cell-based; settings: Table 10
From the text: The lack of efficacy of B22a in inhibiting systemic bacterial infection may have been due to it not being sufficiently stable in vivo. Therefore, three peptides were synthesized that contain the B22 amino acid sequence with additional modifications. Peptide AB22a (SEQ ID No. 32) has an N-terminal acetyl group (CH3C(O)) and a C-terminal amide (NH2). Peptide AB22P (SEQ ID No. 33) has an N-terminal acetyl group and a C-terminal polyethyleneglycol (PEG) (PEG=conjugated 8-amino 3,6-dioxaoctanoic acid). Peptide PB22N (SEQ ID No. 34) has a PEG at the N-terminus. In vitro, PB22N was effective in inhibiting the growth of the majority of the Gram-negative bacteria of the Enterobacteriacea. […] PB22N was also efficacious in inhibiting antibiotic-resistant clinical isolates of Klebsiella pneumoniae (Table 11).

[6] = test system: Pseudomonas aeruginosa; assay type: cell-based
Protocol: as §4

[7] = test system: P. aeruginosa PAO1; assay: Bactericidal activity, viable colony formation; assay type: cell-based, Pseudomonas aeruginosa; settings: for Viable colony formation, P. aeruginosa PAO1 / Fold reduction, P. aeruginosa PAO1: 2 μM peptide for 30 min; for Fold reduction, P. aeruginosa PAO1: versus mock
Protocol: (§3) The broth dilution assay tested for the inhibition of growth. To determine whether B22a has bactericidal activity, viable colonies that formed after bacteria were treated with 2 μM of B22a for 30 min were enumerated (Table 7). Peptide B22a reduced viable colony formation by E. coli by over 2 orders of magnitude. B22a reduced viable colony formation by P. aeruginosa by over 3 orders of magnitudes. B22a, like its predecessor B22, is a bactericidal for Gram-negative bacteria.

[8] = test system: E. coli ATCC 25922; assay: Bactericidal activity, viable colony formation; assay type: cell-based, Escherichia coli; settings: for Viable colony formation, E. coli ATCC 25922 / Fold reduction, E. coli ATCC 25922: 2 μM peptide for 30 min; for Fold reduction, E. coli ATCC 25922: versus mock
Protocol: as §3

[9] = test system: E. coli Top10pHNSHP45; assay: Killing of colistin-resistant E. coli harboring mcr-1 plasmid; assay type: cell-based, Escherichia coli; settings: for Reduction of Top10pHNSHP45 colony formation: 5 minute incubation (FIG. 12B)
Protocol: 1×10^5 CFUs of the bacteria were incubated for 30 min with the concentration of the peptides or colistin shown. Approximately 500 CFUs were then added as a droplet onto nonselective media for 18 h. […] The numbers are the means of three independent assays and those in parenthesis are the range for one standard deviation.
Each antimicrobial peptide was assayed at a final concentration of 2 μM. The number of viable bacterial colonies were determined by plating on a non-selective media and enumerated. Each result is the average of three independent assays. The fold reduction in the colony forming units (CFU) was calculated by dividing the number of CFUs in the mock-treated sample with the number in the peptide-treated samples.

[10] = test system: P. aeruginosa; assay: Growth rate of culture, optical density; assay type: cell-based, Pseudomonas aeruginosa; settings: 30 nM peptide
Protocol: FIG. 21 is a graph showing of peptide B22 (mock), B22a and B22m1 (each at […]) can reduce bacterial growth of P. aeruginosa, wherein the bacteria were grown in a plate reader at 37° C. and shaken. Optical density was monitored every ten (10) minutes to track the growth rate.
This low concentration of the peptide should further decrease the possibility of peptide oligomerization, as oligomerization should be dependent on the concentration of the peptide. The growth of the bacterial culture was then monitored over time. […] The cell division time of E. coli and Enterobacter cloacae were also in the absence or presence of 100 nM of B22a. The presence of B22a increased the doubling time of both bacterial by more than 2-fold. […] Should B22a and B22m1 inhibit bacteria growth as well as kill bacteria through the formation of higher order structures in the membrane, the peptides may have multiple mechanisms to act against bacteria survival. Peptides that act by multiple mechanisms may result in lower bacterial resistance to the peptides.

[11] = test system: Staphylococcus aureus
Protocol: as §4

[12] = test system: Serratia marcescens
Protocol: as §4

[13] = test system: Enterococcus faecalis
Protocol: as §4

[14] = test system: Vibrio vulnificus; assay: Lethal sepsis model, surgical incision infection; settings: no V. vulnificus
Protocol: The number of symptom-less mice in cages of 5 mice were recorded as a function of time. About 50 colony forming units of V. vulnificus were introduced into a surgical incision. The antimicrobial peptide B22 was introduced into the incision at 5 μM 1 h after the introduction of V. vulnificus to the surgical incision.
A lethal sepsis model from Vibrio vulnificus infection of CD-1 mice was selected. […] Cages of 5 mice were monitored every 2 h.

[15] = test system: Enterobacter cloacae
Protocol: as §4

[16] = test system: 19 Gram-negative strains; assay: MIC panel, number of strains inhibited; assay type: cell-based; settings: of 19 Gram-negative strains
Protocol: as §4

[17] = test system: Toll-like receptor 3; assay: Poly(I:C)-induced cytokine production in BEAS-2B cells, ELISA; assay type: cell-based, human; settings: peptide 2 μM
Protocol: Lung epithelial BEAS-2B cells were induced with poly(I:C) at 0.1 μg/ml and the amount of IL-6 secreted into the media 20 h later was assessed by ELISA. Where present, the antimicrobial peptide was at a final concentration of 2 μM.
IL-6 production was quantified by ELISA using the OptEIA™ kit (BD Biosciences). A typical assay used 2×10^4 BEAS-2B cells/well grown for 24 h in flat-bottom 96-well plates. Poly(I:C) was added to a final concentration of 0.13 μg/ml.

[18] = test system: Cultured human cells; assay: MTT cytotoxicity assay; assay type: cell-based
[19] = test system: human red blood cells (hRBCs); assay: Hemolytic activity; assay type: cell-based
Protocol: The amount of hemoglobin released was measured by the absorbance at 435 nm after a 60-minute incubation with the antimicrobial peptide. The percentage of hRBC lysis was normalized to the amount hemoglobin released by the suspension of the hRBCs in deionized water. The background amount of hRBC lysis was determined by adding phosphate buffered saline (PBS) at the same volume as 8 μM of the peptide to the hRBC for 1 h.
The hemolytic activities of peptides were determined using human red blood cells (hRBCs) (Innovative Research, Inc., cat. # IPLA-WB3-18103). The hRBCs were washed three times with PBS and then resuspended in PBS. The hRBCs solution was mixed with serial dilutions of the peptides in PBS buffer. The reaction mixtures were incubated for 45 min at 37° C. After centrifugation at 94×g for 10 min, the intact hRBCs were pelleted and the hemoglobin released from hRBCs was monitored by measuring the absorbance of the supernatant at 415 nm. The background level of absorbance was measured in sampled incubated with only PBS buffer. 100% hemolysis was determined in sampled incubated with water. The percentage of hemolysis was calculated according to the following equation. Percentage of hemolysis=[(Asample−Ablank)/Awater]*100%
Mammalian cells are thought to be less susceptible to cathelicidin peptides in part because the composition of their membrane will be less likely to interact with the peptides. To address this directly, human red blood cells (hRBCs) were tested for lysis after a 45-minute incubation with the peptides. The total lysis of hRBCs was determined by adding water to the cells. The amount of lysis during handling was determined by the addition of phosphate buffered saline at the same volume as that of the peptides.

[20] = test system: V. angustum; assay: Vibrios killing activity; assay type: cell-based; settings: increasing concentrations of SMAP-29C
Protocol: (§5) Vibrios bacteria such as V. angustum or V fischeri were cultured in LM at 30° C. The V. angustum culture was 200× diluted, V. fischeri culture was 40× diluted. […] The peptides were incubated with the bacteria for 1 hour at 30° C. before plated into the bacteria culture (100 μL peptides and 20 μL mock). The cultures were incubated overnight and Colony Forming Units (CFUs) were counted.

[21] = test system: V. fischeri; assay: Vibrios killing activity; assay type: cell-based; settings: increasing concentrations of SMAP-29C
Protocol: as §5

[22] = test system: V. harveyi; assay: Vibrio growth with increasing peptide concentration; assay type: cell-based; settings: increasing concentrations of SMAP-29C
Protocol: Bacteria within Vibrio genus are highly sensitive to the SMAP-29C peptide. Various strains of Vibrio were treated with increasing concentrations of SMAP-29C (See FIG. 7).

Q: Which results are given for `CC[C@H](C)[C@H](NC(=O)[C@@H](NC(=O)[C@@H]1CCCN1C(=O)[C@H](CO)NC(=O)[C@H](CC(C)C)NC(=O)[C@H](CCCCN)NC(=O)[C@H](CCCCN)NC(=O)[C@H](Cc1ccccc1)NC(=O)[C@H](CC(C)C)NC(=O)[C@H](CCCCN)NC(=O)[C@H](CCCCN)NC(=O)[C@H](CC(C)C)NC(=O)[C@H](CCCCN)NC(=O)[C@H](CCCCN)NC(=O)[C@H](CCCNC(=N)N)NC(=O)[C@H](Cc1ccccc1)NC(=O)COCCOCCN)C(C)C)C(=O)N1CCC[C@H]1C(=O)N[C@@H](CC(C)C)C(=O)N[C@@H](CC(C)C)C(=O)N[C@@H](CCCCN)C(=O)N[C@@H](CC(C)C)C(=O)NCC(N)=O` [PB22N] (H-[AEEA]FRKKLKKLFKKLSPVIPLLKLG-NH2)?
A: Minimal inhibitory concentration [1]: 1 µM (≈ 2.74 µg/mL); Outcome in mouse septicemia model [2]: survived and did not exhibit symptoms of infection; Toxicity signs in mice injected with peptide [3]: no obvious symptoms were observed; also recorded: no obvious effects on mice behavior or appearance; Minimal inhibitory concentration [4]: 1 µM; MICs relative to B22a [5]: approximately two-fold better; Minimal inhibitory concentration [6]: 1 µM (≈ 2.74 µg/mL)

Q: Which “Reduction of viable colony formation by P. aeruginosa” value [7] does the source give for “ARKKLKKLAKKLSPVIPLLKLG-NH2 [Peptide B22m2]” here?
A: more than 2 logs

Q: What about the “Viable colony formation, P. aeruginosa PAO1” value [7] of the same molecule?
A: 7.3 × 10^3

Q: What about the “Fold reduction, P. aeruginosa PAO1” value [7] of the same molecule?
A: 164

Q: What about the “Viable colony formation, E. coli ATCC 25922” value [8] of the same molecule?
A: 8.7 × 10^4

Q: What about the “Fold reduction, E. coli ATCC 25922” value [8] of the same molecule?
A: 9

Q: What about the MIC [4] of the same molecule?
A: 4 µM

Q: What about the MIC [6] of the same molecule?
A: 4 µM

Q: Which “Toxicity signs in mice injected with peptide” value (from here on “Toxicity signs”) [3] does the source give for Ac-FRKKLKKLFKKLSPVIPLLKLG-NH2 [AB22a] here?
A: no obvious effects on mice behavior or appearance

Q: What about the “Toxicity signs” value ([3]; listed as AB22N) of the same molecule?
A: no obvious symptoms were observed

Q: Which MIC ([1]; Table 8, clinical isolate 262 (NDM1+)) does the source give for Colistin [reference compound] here?
A: > 8 µg/mL

Q: What about the MIC ([1]; Table 8, clinical isolate 284) of the same molecule?
A: 16 µg/mL

Q: And the MIC ([1]; Table 8, clinical isolate 330)?
A: > 16 µg/mL

Q: What about the MIC ([1]; Table 8, clinical isolate 361) of the same molecule?
A: > 16 µg/mL

Q: And the MIC ([1]; Table 11, clinical isolate 265)?
A: >8 µg/mL

Q: What about the MIC ([1]; Table 11, clinical isolate 284) of the same molecule?
A: 16 µg/mL

Q: And the MIC ([1]; Table 11, clinical isolate 330)?
A: >16 µg/mL

Q: And the MIC ([1]; Table 11, clinical isolate 361)?
A: >16 µg/mL

Q: And the “Killing of E. coli Top10pHNSHP45” value ([9]; 2 μM, 5 minute incubation (FIG. 12A))?
A: resistant

Q: And the “Reduction of Top10pHNSHP45 colony formation” value [9]?
A: little effect

Q: With “FRKKLKKLAKKLSPVIPLLKLG-NH2 [Peptide B22m1]” as the molecule, how does the “Growth rate of P. aeruginosa” value [10] read?
A: perceptibly reduced

Q: What about the “Killing of P. aeruginosa compared with B22a” value [7] of the same molecule?
A: comparable killing

Q: And the “Viable colony formation, P. aeruginosa PAO1” value [7]?
A: <20

Q: And the “Fold reduction, P. aeruginosa PAO1” value [7]?
A: >6000

Q: What about the “Killing of E. coli compared with B22a” value [8] of the same molecule?
A: comparable killing

Q: And the “Viable colony formation, E. coli ATCC 25922” value [8]?
A: 4.7 × 10^5

Q: What about the “Fold reduction, E. coli ATCC 25922” value [8] of the same molecule?
A: 170

Q: What about the MIC [4] of the same molecule?
A: 2 µM

Q: What about the MIC [6] of the same molecule?
A: 2 µM

Q: Which results are given for FRKKLKKLFKKLSPVIPLLKLG [Peptide B22]?
A: MIC [11]: >64 µM; MICs for two strains of S. aureus [11]: ≥ 64 µM; MICs with the carbapenem-resistant K. pneumoniae [1]: ≤ 4 µM; Minimal inhibitory concentration [12]: >32 µM; MIC [13]: >32 µM; Symptoms of mice treated with B22 alone [14]: no symptom throughout the experiment; MIC [6]: 2 µM; MIC [15]: 2 µM; Minimal inhibitory concentration [15]: 4 µM

Q: For “FRKKLKKLFKKLSPVIPLLKLG-NH2 [Peptide B22a]”, which Minimal inhibitory concentration [1] is on record?
A: 2 µM

Q: What about the Minimal inhibitory concentration [12] of the same molecule?
A: >32 µM

Q: What about the “Toxicity signs” value [3] of the same molecule?
A: did not exhibit distress or signs of toxicity

Q: What about the MIC [4] of the same molecule?
A: 2 µM

Q: What about the MIC [6] of the same molecule?
A: 2 µM

Q: And the Minimal inhibitory concentration [6]?
A: 2 µM

Q: And the Minimal inhibitory concentration [15]?
A: 4 µM

Q: Which results are given for “GLRKKFRKTRKRIQKLGRKIGKTGRKVWKAWREYGQIPYPCRI [CAP-11, reference compound]”?
A: Number of strains inhibited at 16 μg/ml [16]: 16/19; Minimal inhibitory concentration [4]: >32 µg/mL

Q: Which results are given for GRFKRFRKKLKKLFKKLSPVIPLL [BMAP-24]?
A: MIC [11]: >64 µM; MICs for two strains of S. aureus [11]: ≥ 64 µM; MICs with the carbapenem-resistant K. pneumoniae [1]: ≤ 4 µM; Viable colonies of Top10pHNSHP45 relative to BMAP27B ([9]; 2 μM (FIG. 13)): reduced the number of viable colonies relative to BMAP27B; IL-6 production [17]: do not enhance; IL-8 production [17]: do not enhance; MIC [13]: 4 µM; MIC [15]: 2 µM

Q: Which results are given for GRFKRLRKKLKKLFKKLSPVIPLLHLG [BMAP-27B]?
A: MIC [11]: >64 µM; Cytotoxicity, MTT assay [18]: no increased cytotoxicity compared to the controls; RBC lysis [19]: decreased RBC lysis compared to the control H2O; MIC [6]: 4 µM; Minimal inhibitory concentration [6]: 4 µM; MIC [15]: 4 µM; Minimal inhibitory concentration [15]: 4 µM

Q: Which “Number of strains inhibited at 16 μg/ml” value [16] does the source give for LLGDFFRKSKEKIGKEFKRIVQRIKDFLR [LL-29] here?
A: 4/19

Q: For “RGLRRLGRKIAHGVKKCGPTVLRIIRIAGC [SMAP-29C]”, which “Reduction of Top10pHNSHP45 colony formation” value [9] is on record?
A: several logs

Q: And the “Growth of V. angustum” value [20]?
A: growth reduction correlation to the concentration of SMAP-29C

Q: What about the “Growth of V. fischeri” value [21] of the same molecule?
A: growth reduction correlation to the concentration of SMAP-29C

Q: What about the “Growth of V. harveyi” value [22] of the same molecule?
A: growth reduction correlation to the concentration of SMAP-29C

Q: With “RLGNFFRKVKEKIGGGLKKVGQKIKDFLGNLVPRTAS [RL-37]” as the molecule, how does the “Number of strains inhibited at 16 μg/ml” value [16] read?
A: 7/19
